# Results from patent US20100105694A1, “SUBSTITUTED PYRAZINONE DERIVATIVES FOR USE AS A MEDICINE” (priority 2006, published 2010).
# Experiments:
# [1] = target: T1, human adrenergic-α2C receptor (Homo sapiens, UniProt P18825); assay: Radioligand binding experiment for α2C-adrenoceptor ([3H]raulwolscine, CHO cell membranes); conditions: [3H]raulwolscine 1 nM, membranes of CHO cells transfected with human α2C receptor; read-out: h-α2C pIC50 (converted)
# T1 construct: expressed in transfected cells; host or cells: CHO cells, stably transfected; membranes
# T1 sequence (P18825 1-462): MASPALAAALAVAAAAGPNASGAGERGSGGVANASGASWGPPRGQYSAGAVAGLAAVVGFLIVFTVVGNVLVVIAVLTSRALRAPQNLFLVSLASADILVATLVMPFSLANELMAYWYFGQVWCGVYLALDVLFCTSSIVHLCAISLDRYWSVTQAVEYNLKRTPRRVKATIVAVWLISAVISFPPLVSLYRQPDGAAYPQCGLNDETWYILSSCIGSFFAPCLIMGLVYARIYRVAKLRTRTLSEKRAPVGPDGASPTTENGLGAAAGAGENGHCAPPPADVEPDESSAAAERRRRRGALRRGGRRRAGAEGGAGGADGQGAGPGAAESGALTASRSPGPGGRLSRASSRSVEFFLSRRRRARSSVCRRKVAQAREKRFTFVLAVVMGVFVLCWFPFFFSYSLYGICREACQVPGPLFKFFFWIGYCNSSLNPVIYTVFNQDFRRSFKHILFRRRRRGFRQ
# Method: (§1) The interaction of a compound of Formula (I) with α2C-adrenoceptor receptors was assessed in in vitro radioligand binding experiments. In general, a low concentration of a radioligand with a high binding affinity for a particular receptor or transporter is incubated with a sample of a tissue preparation enriched in a particular receptor or transporter or with a preparation of cells expressing cloned human receptors in a buffered medium. During the incubation, the radioligand binds to the receptor or transporter. When equilibrium of binding is reached, the receptor bound radioactivity is separated from the non-bound radioactivity, and the receptor- or transporter-bound activity is counted. The interaction of the test compounds with the receptor is assessed in competition binding experiments. Various concentrations of the test compound are added to the incubation mixture containing the receptor- or transporter preparation and the radioligand. The test compound in proportion to its binding affinity and its concentration inhibits binding of the radioligand. The radioligand used for hα2A and hα2C receptor binding was [^3H]-raulwolscine.
# (§2) CHO cells, stabile transfected with human adrenergic-α2A and α2C receptor cDNA, were cultured in Dulbecco's Modified Eagle's Medium (DMEM)/Nutrient mixture Ham's F12 (ratio 1:1) (Gibco, Gent-Belgium) supplemented with 10% heat inactivated fetal calf serum (Life Technologies, Merelbeke-Belgium) and antibiotics (100 IU/ml penicillin G, 100 μg/ml streptomycin sulphate, 110 μg/ml pyruvic acid and 100 μg/ml L-glutamine). One day before collection, cells were induced with 5 mM sodiumbutyrate. Upon 80-90% of confluence, cells were scraped in phosphate buffered saline without Ca^2+ and Mg^2+ and collected by centrifugation at 1500×g for 10 minutes. The cells were homogenised in Tris-HCl 50 mM using an Ultraturrax homogenizer and centrifuged for 10 minutes at 23,500×g. The pellet was washed once by resuspension and rehomogenization and the final pellet was resuspended in Tris-HCl, divided in 1 ml aliquots and stored at −70° C.
# (§3) Membranes were thawed and re-homogenized in incubation buffer (glycylglycine 25 mM, pH 8.0). […] Filters were rinsed extensively with ice-cold rinsing buffer (Tris-HCl 50 mM pH 7.4). Filter-bound radioactivity was determined by scintillation counting in a Topcount (Packard, Meriden, Conn.) and results were expressed as counts per minute (cpm). Non-specific binding was determined in the presence of 1 μM oxymetazoline for the hα2A receptor and 1 μM spiroxatrine for hα2C receptors.
# (§4) Data from assays in the presence of compound were calculated as a percentage of total binding measured in the absence of test compound. Inhibition curves, plotting percent of total binding versus the log value of the concentration of the test compound, were automatically generated, and sigmoidal inhibition curves were fitted using non-linear regression. The pIC50 values of test compounds were derived from individual curves.
# [2] = target: T2, human adrenergic-α2A receptor (Homo sapiens, UniProt P08913); assay: Radioligand binding experiment for hα2A receptor ([3H]raulwolscine, CHO cell membranes); conditions: [3H]raulwolscine 1 nM, membranes of CHO cells transfected with human α2A receptor; read-out: h-α2A pIC50 (converted)
# T2 construct: expressed in transfected cells; host or cells: CHO cells, stably transfected; membranes
# T2 sequence (P08913 1-465): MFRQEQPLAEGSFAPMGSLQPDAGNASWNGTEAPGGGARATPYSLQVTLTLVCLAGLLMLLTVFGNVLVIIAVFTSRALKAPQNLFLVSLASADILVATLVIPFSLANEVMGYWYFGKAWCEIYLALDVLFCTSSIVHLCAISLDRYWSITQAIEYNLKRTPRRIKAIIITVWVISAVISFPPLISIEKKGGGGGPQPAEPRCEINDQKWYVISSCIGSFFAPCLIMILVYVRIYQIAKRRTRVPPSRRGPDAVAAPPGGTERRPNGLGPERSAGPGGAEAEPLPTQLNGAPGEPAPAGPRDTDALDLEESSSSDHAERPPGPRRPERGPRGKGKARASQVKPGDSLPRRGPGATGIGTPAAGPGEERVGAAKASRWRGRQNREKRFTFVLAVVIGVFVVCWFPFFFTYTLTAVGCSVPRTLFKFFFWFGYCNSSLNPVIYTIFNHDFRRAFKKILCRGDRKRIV
# Method: as §1, §2, §3, §4
# 5HT-Transporter = target: T3, 5HT-Transporter (Homo sapiens, UniProt P31645); assay: Binding experiment for the 5HT-transporter ([3H]paroxetine, human platelet membranes); conditions: [3H]paroxetine 0.5 nM, read-out: h-5HTT pIC50 (converted)
# T3 construct: Human platelet membranes (Oceanix Biosciences Corporation, Hanover, Md., USA) were thawed; tissue Oceanix Biosciences Corporation; host or cells: human platelet membranes
# T3 sequence (P31645 whole entry): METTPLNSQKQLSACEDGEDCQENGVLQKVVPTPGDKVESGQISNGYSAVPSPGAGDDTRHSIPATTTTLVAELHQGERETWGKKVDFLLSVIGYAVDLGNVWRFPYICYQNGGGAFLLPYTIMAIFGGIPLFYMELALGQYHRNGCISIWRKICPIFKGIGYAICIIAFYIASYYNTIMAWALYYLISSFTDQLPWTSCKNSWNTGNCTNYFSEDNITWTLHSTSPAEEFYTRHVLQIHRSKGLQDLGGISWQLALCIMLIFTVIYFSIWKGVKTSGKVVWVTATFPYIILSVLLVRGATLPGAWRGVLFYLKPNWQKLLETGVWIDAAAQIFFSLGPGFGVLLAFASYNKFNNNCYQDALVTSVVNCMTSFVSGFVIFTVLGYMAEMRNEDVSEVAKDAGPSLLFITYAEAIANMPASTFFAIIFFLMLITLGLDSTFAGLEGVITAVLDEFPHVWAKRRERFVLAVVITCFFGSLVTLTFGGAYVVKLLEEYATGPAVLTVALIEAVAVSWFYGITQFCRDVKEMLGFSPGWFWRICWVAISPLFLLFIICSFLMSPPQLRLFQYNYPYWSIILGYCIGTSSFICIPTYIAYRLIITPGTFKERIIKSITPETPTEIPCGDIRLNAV
# Method: as §1
# Human platelet membranes (Oceanix Biosciences Corporation, Hanover, Md., USA) were thawed, diluted in buffer (Tris-HCl 50 mM, 120 mM NaCl and 5 mM KCl) and quickly (max 3 s) homogenised with an Ultraturrax homogenizer. […] Incubation was stopped by rapid filtration of the incubation mixture over GF/B filters, pre-wetted with 0.1% polyethyleneamine, using a Filtermate196 harvester (Packard, Meriden, Conn.). Filters were rinsed extensively with ice-cold buffer and radioactivity on the filters was counted in a Topcount liquid scintillation counter (Packard, Meriden, Conn.). Data were expressed as cpm. Imipramine (at 1 μM final concentration) was used to determine the non-specific binding.
# as §4
IC50 [1] [nM],IC50 [2] [nM],IC50 (5HT-Transporter) [nM],Compound
631,3160,> 10000,CC(C)(C)OC(=O)NCc1ccc(Cn2ccnc(NC3CCN(CC(c4ccccc4)c4ccccc4)CC3)c2=O)cc1 [Compound 9-4]
794,2510,> 10000,O=c1c(NC2CCN(CC(c3ccccc3)c3ccccc3)CC2)nccn1CCN1CCCCC1 [Compound 9-5]
398,1260,6310,O=C1c2ccccc2C(=O)N1CCCn1ccnc(NC2CCN(CC(c3ccccc3)c3ccccc3)CC2)c1=O [Compound 9-6]
631,1000,> 10000,O=c1c(NC2CCN(CC(c3ccccc3)c3ccccc3)CC2)nccn1Cc1ccccc1Br [Compound 9-7]
631,1260,5010,O=c1c(NC2CCN(CC(c3ccccc3)c3ccccc3)CC2)nccn1Cc1cccc(Br)c1 [Compound 9-8]
501,1260,6310,O=c1c(NC2CCN(CC(c3ccccc3)c3ccccc3)CC2)nccn1Cc1ccc(Br)cc1 [Compound 9-9]
631,2510,> 10000,O=C(Cn1ccnc(NC2CCN(CC(c3ccccc3)c3ccccc3)CC2)c1=O)c1ccccc1 [Compound 9-10]
631,794,> 10000,NCc1ccc(Cn2ccnc(N3CCN(CCc4ccccc4)CC3)c2=O)cc1 [Compound 10-1]
316,251,> 10000,CC(C)(C)OC(=O)NCc1ccc(Cn2ccnc(N3CCN(Cc4ccccc4)CC3)c2=O)cc1 [Compound 10-2]
631,2510,> 10000,C=CCn1ccnc(N2CCN(CCc3ccccc3)CC2)c1=O [Compound 10-4]
631,316,> 10000,O=c1c(N2CCN(Cc3ccccc3)CC2)nccn1C/C=C/c1ccccc1 [Compound 10-5]
501,1000,5010,O=c1c(N2CCN(CCc3ccccc3)CC2)nccn1C/C=C/c1ccccc1 [Compound 10-6]
631,794,5010,O=c1c(N2CCN(CCc3ccccc3)CC2)nccn1Cc1ccc(-c2ccccc2)cc1 [Compound 10-8]
316,501,3160,O=c1c(N2CCN(CCc3ccccc3)CC2)nccn1Cc1ccc2ccccc2c1 [Compound 10-10]
200,794,> 10000,O=c1c(N2CCN(CCc3ccccc3)CC2)nccn1Cc1ccc(Cl)s1 [Compound 10-11]
501,1260,> 10000,COc1ccc(-c2nnc(Cn3ccnc(N4CCN(CCc5ccccc5)CC4)c3=O)o2)cc1 [Compound 10-12]
631,251,2000,NCc1ccc(Cn2ccnc(NC3CCN(Cc4ccc(OCc5ccccc5)cc4)CC3)c2=O)cc1 [Compound 11-1]
794,794,> 10000,CN(C)CCCn1ccnc(NC2CCN(Cc3ccc(OCc4ccccc4)cc3)CC2)c1=O [Compound 11-2]
631,794,> 10000,CC(C)(C)OC(=O)NCCCn1ccnc(NC2CCN(Cc3ccc(OCc4ccccc4)cc3)CC2)c1=O [Compound 11-3]
794,1580,> 10000,O=c1c(NC2CCN(Cc3ccc(OCc4ccccc4)cc3)CC2)nccn1CCN1CCCCC1 [Compound 11-4]
251,794,3160,O=C1c2ccccc2C(=O)N1CCCn1ccnc(NC2CCN(Cc3ccc(OCc4ccccc4)cc3)CC2)c1=O [Compound 11-5]
794,631,1580,O=c1c(NC2CCN(Cc3ccc(OCc4ccccc4)cc3)CC2)nccn1Cc1cccc(Br)c1 [Compound 11-6]
631,631,1580,O=c1c(NC2CCN(Cc3ccc(OCc4ccccc4)cc3)CC2)nccn1Cc1ccc(Br)cc1 [Compound 11-7]
